Measurements reported in patent US20230085307A1, “PYRIDAZINONE COMPOUND AND HERBICIDE” (NISSAN CHEMICAL CORPORATION, priority 2019, published 2023).

Tests used:
barnyard grass [1] = experiment: Test Example 3: herbicidal effect by foliage application, Wagner pot (Table 18, symbol H); format: in vivo, barnyard grass (Echinochloa crus-galli)
Procedure, shortened: (§1)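 Plants were sown in alluvial soil held under 0.1–0.5 cm standing water and grown 14 days in a greenhouse at 25–30 °C. An emulsifiable formulation, water-diluted to the set dose, was then sprayed onto the foliage, and effects were scored three weeks later using previously defined criteria.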

Chinese sprangletop = experiment: Test Example 3: herbicidal effect by foliage application, Wagner pot (Table 18, symbol D); format: in vivo, chinese sprangletop (Leptochloa chinensis)
Procedure, shortened: as §1

rice flat sedge = experiment: Test Example 3: herbicidal effect by foliage application, Wagner pot (Table 18, symbol E); format: in vivo, rice flat sedge (Cyperus iria)
Procedure, shortened: as §1

southern crabgrass [2] = experiment: Test Example 4: herbicidal effect by soil treatment (Table 19, symbol F); format: in vivo, southern crabgrass (Digitaria ciliaris)
Procedure, shortened: (§2)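 Scoring uses the grading scale of an earlier test, three weeks post-application. Treatment consists of spraying a diluted emulsion formulation across the surface of sterilized diluvial soil in which seeds are buried near 1.5 cm deep; boxes are kept in a greenhouse between 25° C. and 30° C.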

green foxtail [3] = experiment: Test Example 4: herbicidal effect by soil treatment (Table 19, symbol G); format: in vivo, green foxtail (Setaria viridis)
Procedure, shortened: as §2

barnyard grass [4] = experiment: Test Example 4: herbicidal effect by soil treatment (Table 19, symbol H); format: in vivo, barnyard grass (Echinochloa crus-galli)
Procedure, shortened: as §2

wild oat [5] = experiment: Test Example 4: herbicidal effect by soil treatment (Table 19, symbol I); format: in vivo, wild oat (Avena fatua)
Procedure, shortened: as §2

blackgrass [6] = experiment: Test Example 4: herbicidal effect by soil treatment (Table 19, symbol J); format: in vivo, blackgrass (Alopecurus myosuroides)
Procedure, shortened: as §2

Italian ryegrass [7] = experiment: Test Example 4: herbicidal effect by soil treatment (Table 19, symbol K); format: in vivo, Italian ryegrass (Lolium multiflorum)
Procedure, shortened: as §2

windgrass [8] = experiment: Test Example 4: herbicidal effect by soil treatment (Table 19, symbol L); format: in vivo, windgrass (Apera spica-venti)
Procedure, shortened: as §2

velvetleaf [9] = experiment: Test Example 4: herbicidal effect by soil treatment (Table 19, symbol M); format: in vivo, velvetleaf (Abutilon theophrasti)
Procedure, shortened: as §2

redroot pigweed = experiment: Test Example 4: herbicidal effect by soil treatment (Table 19, symbol N); format: in vivo, redroot pigweed (Amaranthus retroflexus)
Procedure, shortened: as §2

lambsquarters [10] = experiment: Test Example 4: herbicidal effect by soil treatment (Table 19, symbol O); format: in vivo, lambsquarters (Chenopodium album)
Procedure, shortened: as §2

chickweed = experiment: Test Example 4: herbicidal effect by soil treatment (Table 19, symbol P); format: in vivo, common chickweed (Stellaria media)
Procedure, shortened: as §2

persian speedwell [11] = experiment: Test Example 4: herbicidal effect by soil treatment (Table 19, symbol R); format: in vivo, Persian speedwell (Veronica persica)
Procedure, shortened: as §2

southern crabgrass [12] = experiment: Test Example 5: herbicidal effect by foliage application, plastic box (Table 20, symbol F); format: in vivo, southern crabgrass (Digitaria ciliaris); conditions: foliage application, three weeks after application
Procedure, shortened: (§3)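 Post-emergence foliar test in sterilized diluvial soil. Compound applied as water-diluted emulsion at a predetermined rate to 14-day-old plants; evaluation at three weeks.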

green foxtail [13] = experiment: Test Example 5: herbicidal effect by foliage application, plastic box (Table 20, symbol G); format: in vivo, green foxtail (Setaria viridis); conditions: foliage application, three weeks after application
Procedure, shortened: as §3

barnyard grass [14] = experiment: Test Example 5: herbicidal effect by foliage application, plastic box (Table 20, symbol H); format: in vivo, barnyard grass (Echinochloa crus-galli); conditions: foliage application, three weeks after application
Procedure, shortened: as §3

wild oat [15] = experiment: Test Example 5: herbicidal effect by foliage application, plastic box (Table 20, symbol I); format: in vivo, wild oat (Avena fatua); conditions: foliage application, three weeks after application
Procedure, shortened: as §3

blackgrass [16] = experiment: Test Example 5: herbicidal effect by foliage application, plastic box (Table 20, symbol J); format: in vivo, blackgrass (Alopecurus myosuroides); conditions: foliage application, three weeks after application
Procedure, shortened: as §3

Italian ryegrass [17] = experiment: Test Example 5: herbicidal effect by foliage application, plastic box (Table 20, symbol K); format: in vivo, Italian ryegrass (Lolium multiflorum); conditions: foliage application, three weeks after application
Procedure, shortened: as §3

windgrass [18] = experiment: Test Example 5: herbicidal effect by foliage application, plastic box (Table 20, symbol L); format: in vivo, windgrass (Apera spica-venti); conditions: foliage application, three weeks after application
Procedure, shortened: as §3

velvetleaf [19] = experiment: Test Example 5: herbicidal effect by foliage application, plastic box (Table 20, symbol M); format: in vivo, velvetleaf (Abutilon theophrasti); conditions: foliage application, three weeks after application
Procedure, shortened: as §3

lambsquarters [20] = experiment: Test Example 5: herbicidal effect by foliage application, plastic box (Table 20, symbol O); format: in vivo, lambsquarters (Chenopodium album); conditions: foliage application, three weeks after application
Procedure, shortened: as §3

false cleavers = experiment: Test Example 5: herbicidal effect by foliage application, plastic box (Table 20, symbol Q); format: in vivo, false cleavers (Galium spurium); conditions: foliage application, three weeks after application
Procedure, shortened: as §3

persian speedwell [21] = experiment: Test Example 5: herbicidal effect by foliage application, plastic box (Table 20, symbol R); format: in vivo, Persian speedwell (Veronica persica); conditions: foliage application, three weeks after application
Procedure, shortened: as §3

[22] = amount of applied herbicide 147 g/ha
[23] = amount of applied herbicide 320 g/ha

COc1ccccc1-c1oc2ccc(C)cc2c1-c1c(O)c(C)nn(C)c1=O [9-006]
Herbicidal effect on H (barnyard grass), foliage application (barnyard grass [1]; [22]): 1 (Herbicidal rate of 5% or more and less than 20%) | Herbicidal effect on D (Chinese sprangletop), foliage application (Chinese sprangletop; [22]): 0 (Herbicidal rate of 5% or less (almost no effect)) | Herbicidal effect on E (rice flat sedge), foliage application (rice flat sedge; [22]): 2 (Herbicidal rate of 20% or more and less than 40%) | F: southern crabgrass, herbicidal effect grade (southern crabgrass [2]; [22]): 0 (Herbicidal rate of 5% or less (almost no effect)) | G: green foxtail, herbicidal effect grade (green foxtail [3]; [22]): 0 (Herbicidal rate of 5% or less (almost no effect)) | H: barnyard grass, herbicidal effect grade (barnyard grass [4]; [22]): 0 (Herbicidal rate of 5% or less (almost no effect)) | I: wild oat, herbicidal effect grade (wild oat [5]; [22]): 0 (Herbicidal rate of 5% or less (almost no effect)) | J: blackgrass, herbicidal effect grade (blackgrass [6]; [22]): 0 (Herbicidal rate of 5% or less (almost no effect)) | K: Italian ryegrass, herbicidal effect grade (Italian ryegrass [7]; [22]): 0 (Herbicidal rate of 5% or less (almost no effect)) | L: windgrass, herbicidal effect grade (windgrass [8]; [22]): 0 (Herbicidal rate of 5% or less (almost no effect)) | M: velvetleaf, herbicidal effect grade (velvetleaf [9]; [22]): 0 (Herbicidal rate of 5% or less (almost no effect)) | N: redroot pigweed, herbicidal effect grade (redroot pigweed; [22]): 3 (Herbicidal rate of 40% or more and less than 70%) | O: lambsquarters, herbicidal effect grade (lambsquarters [10]; [22]): 0 (Herbicidal rate of 5% or less (almost no effect)) | P: chickweed, herbicidal effect grade (chickweed; [22]): 0 (Herbicidal rate of 5% or less (almost no effect)) | R: persian speedwell, herbicidal effect grade (persian speedwell [11]; [22]): 0 (Herbicidal rate of 5% or less (almost no effect)) | herbicidal effect on southern crabgrass (F) (southern crabgrass [12]; 147 g/ha): 0 (Herbicidal rate of 5% or less (almost no effect)) | herbicidal effect on green foxtail (G) (green foxtail [13]; 147 g/ha): 0 (Herbicidal rate of 5% or less (almost no effect)) | herbicidal effect on barnyard grass (H) (barnyard grass [14]; 147 g/ha): 0 (Herbicidal rate of 5% or less (almost no effect)) | herbicidal effect on wild oat (I) (wild oat [15]; 147 g/ha): 0 (Herbicidal rate of 5% or less (almost no effect)) | herbicidal effect on blackgrass (J) (blackgrass [16]; 147 g/ha): 0 (Herbicidal rate of 5% or less (almost no effect)) | herbicidal effect on Italian ryegrass (K) (Italian ryegrass [17]; 147 g/ha): 0 (Herbicidal rate of 5% or less (almost no effect)) | herbicidal effect on windgrass (L) (windgrass [18]; 147 g/ha): 0 (Herbicidal rate of 5% or less (almost no effect)) | herbicidal effect on velvetleaf (M) (velvetleaf [19]; 147 g/ha): 2 (Herbicidal rate of 20% or more and less than 40%) | herbicidal effect on lambsquarters (O) (lambsquarters [20]; 147 g/ha): 0 (Herbicidal rate of 5% or less (almost no effect)) | herbicidal effect on false cleavers (Q) (false cleavers; 147 g/ha): 3 (Herbicidal rate of 40% or more and less than 70%) | herbicidal effect on persian speedwell (R) (persian speedwell [21]; 147 g/ha): 0 (Herbicidal rate of 5% or less (almost no effect))

COc1cc(F)ccc1-c1oc2ccc(C)cc2c1-c1c(O)c(C)nn(C)c1=O [9-009]
Herbicidal effect on H (barnyard grass), foliage application (barnyard grass [1]; [23]): 3 (Herbicidal rate of 40% or more and less than 70%) | Herbicidal effect on D (Chinese sprangletop), foliage application (Chinese sprangletop; [23]): 0 (Herbicidal rate of 5% or less (almost no effect)) | Herbicidal effect on E (rice flat sedge), foliage application (rice flat sedge; [23]): 1 (Herbicidal rate of 5% or more and less than 20%) | F: southern crabgrass, herbicidal effect grade (southern crabgrass [2]; [23]): 2 (Herbicidal rate of 20% or more and less than 40%) | G: green foxtail, herbicidal effect grade (green foxtail [3]; [23]): 3 (Herbicidal rate of 40% or more and less than 70%) | H: barnyard grass, herbicidal effect grade (barnyard grass [4]; [23]): 3 (Herbicidal rate of 40% or more and less than 70%) | I: wild oat, herbicidal effect grade (wild oat [5]; [23]): 0 (Herbicidal rate of 5% or less (almost no effect)) | J: blackgrass, herbicidal effect grade (blackgrass [6]; [23]): 0 (Herbicidal rate of 5% or less (almost no effect)) | K: Italian ryegrass, herbicidal effect grade (Italian ryegrass [7]; [23]): 0 (Herbicidal rate of 5% or less (almost no effect)) | L: windgrass, herbicidal effect grade (windgrass [8]; [23]): 0 (Herbicidal rate of 5% or less (almost no effect)) | M: velvetleaf, herbicidal effect grade (velvetleaf [9]; [23]): 0 (Herbicidal rate of 5% or less (almost no effect)) | N: redroot pigweed, herbicidal effect grade (redroot pigweed; [23]): 0 (Herbicidal rate of 5% or less (almost no effect)) | O: lambsquarters, herbicidal effect grade (lambsquarters [10]; [23]): 3 (Herbicidal rate of 40% or more and less than 70%) | P: chickweed, herbicidal effect grade (chickweed; [23]): 0 (Herbicidal rate of 5% or less (almost no effect)) | R: persian speedwell, herbicidal effect grade (persian speedwell [11]; [23]): 0 (Herbicidal rate of 5% or less (almost no effect)) | herbicidal effect on southern crabgrass (F) (southern crabgrass [12]; 320 g/ha): 2 (Herbicidal rate of 20% or more and less than 40%) | herbicidal effect on green foxtail (G) (green foxtail [13]; 320 g/ha): 2 (Herbicidal rate of 20% or more and less than 40%) | herbicidal effect on barnyard grass (H) (barnyard grass [14]; 320 g/ha): 3 (Herbicidal rate of 40% or more and less than 70%) | herbicidal effect on wild oat (I) (wild oat [15]; 320 g/ha): 2 (Herbicidal rate of 20% or more and less than 40%) | herbicidal effect on blackgrass (J) (blackgrass [16]; 320 g/ha): 0 (Herbicidal rate of 5% or less (almost no effect)) | herbicidal effect on Italian ryegrass (K) (Italian ryegrass [17]; 320 g/ha): 1 (Herbicidal rate of 5% or more and less than 20%) | herbicidal effect on windgrass (L) (windgrass [18]; 320 g/ha): 0 (Herbicidal rate of 5% or less (almost no effect)) | herbicidal effect on velvetleaf (M) (velvetleaf [19]; 320 g/ha): 2 (Herbicidal rate of 20% or more and less than 40%) | herbicidal effect on lambsquarters (O) (lambsquarters [20]; 320 g/ha): 3 (Herbicidal rate of 40% or more and less than 70%) | herbicidal effect on false cleavers (Q) (false cleavers; 320 g/ha): 4 (Herbicidal rate of 70% or more and less than 90%) | herbicidal effect on persian speedwell (R) (persian speedwell [21]; 320 g/ha): 3 (Herbicidal rate of 40% or more and less than 70%)
